One series relates to PC12 cells. The series can be described thus: Differentiation of PC12 cells to neuron like cells, with glutamate. It is filed as cell-based, rat. The conditions noted are these: 5 days. Here is the method: Cell cultures of various human glial type cell lines (T98G, U87MG, A172, U118MG), as well as human neuronal type cell lines SH-SY 5Y and Be(2)-C were used to test the new compounds. In addition, the rat glioma cell line C6 was used. PC12 cells originating from rats were used as another cell line displaying neuronal characteristics. The applicants also have produced, by genetic manipulation, a modified rat C6 glial cell strain and a modified human U118MG glial type cell strain, both under-expressing the TSPO, which allows to study TSPO specific effects, including of the compounds of the invention, which can be done according to methods described previously (Weisinger et al. Biochemistry. 2004; 43:12315-21; Levin et al. 2005; Zeno et al., 2009).
Briefly, PC-12 cells were exposed to Cpd 1, in combination with glutamate, basically as described for the cell cultures of Example 1, and remained under that condition for 5 days.

Series [1] can be described thus: Pharmacokinetic properties in the mouse after i.p. administration. It is filed as in vivo.
A further series is described as follows: Stability on storage. The class given is physicochemical. Conditions: several months of storage.
The test system of another series is U118MG cells. Put plainly: Collapse of the mitochondrial membrane potential (ΔΨm) induced by glutamate. It is filed as cell-based, human. Conditions: glutamate exposed cells. The source says: Techniques and parameters assayed are summarized here: Total protein levels (Bradford. Anal Biochem. 1976; 72:248-54); TSPO ligand binding assays (Kugler et al. 2008; Levin et al. 2005; Danovich et al. Eur Neuropsychopharmacol. 2008; 18:24-33) cell death, including apoptosis and necrosis and related molecular biological processes (Soustiel et al. Neuropathol Appl Neurobiol. 2008; 34:412-23; Soustiel et al. Exp Neurol. 2008; 214:201-8; Zeno et al. 2009); mitochondrial transmembrane potential collapse (Chelli et al. Biochem Pharmacol. 2004; 68:125-34; Kugler et al. 2008; Zeno et al., 2009; Shargorodsky et al. Apoptosis. 2012; 17:647-65), reactive oxygen species (ROS) generation as a measure of oxidative stress (Veenman et al. 2008; Zeno et al. 2009); TSPO knockdown (Levin et al. 2005; Zeno et al. 2009); expression levels of mitochondrial TSPO and associated proteins (Veenman et al. 2002; Levin et al. 2005; Veenman et al. 2008); gene expression with RT-PCR and microarray analysis (Bode et al. 2012; Veenman et al. 2012). Parameters of inflammation, immune response, migration, and the cell cycle are also tested. All these approaches can also be applied for quality control of the compounds.
Compound 1 is very effective at a concentration of 25 μM in this model (in order to achieve the same effect with the classical TSPO ligand PK 11195 a concentration of 50 μM has to be applied (data not shown).

Series [2] has as its system R6-2 mice. Put plainly: Lifespan of R6-2 mice, transgenic model for Huntington Disease. The class given is in vivo, mouse. The conditions noted are these: daily s.c. injections 5 days a week from week 5, vs DMSO and saline. The text has this: For the assays described herein systemic injections of kainic in rats were applied and also contusion (Veenman et al. 2002; Soustiel et al. Neuropathol Appl Neurobiol. 2008; Soustiel et al. Exp Neurol. 2008). These models present very well defined cell death in the brain. Cell death in the brain is the major pathological characteristic of progressing neurodegeneration common to brain diseases. As the compounds of the present invention are designed to prevent cell death in the brain as a consequence of disease and progressing brain damage after injury, including behavioral impairments, animal models displaying cell death in the brain are the models of choice for displaying the protective capabilities of the compounds of the invention. For these reasons the R6-2 model for Huntington Disease was chosen to test the effectiveness of Compound 1 and to compare the effectiveness of Compound 1 with those of the compound of U.S. Pat. No. 8,541,428 (Cpd A) and with the classical TSPO ligand PK 11195, as well as other compounds disclosed herein. Compounds 5 and 6 were also tested in the same R6-2 model.
(§1) R6-2 is a transgenic mouse model for Huntington Disease. Huntington Disease in humans is a hereditary neurodegenerative disease affecting motor performance and finally leading to death of the patients having the disease. R6-2 mice (˜120 CAG repeats B6CBA-Tg(HDexon1)62 Gpb/3J) mice were used for the experiments described below. For this purpose, mice obtained from the Jackson Laboratory (ME) were bred. In particular: males genotype: Hemizygous for Tg(HDexon1)62 Gpb, and females from the wildtype background strain B6CBAF1/J were bred according to the protocol of Jackson Laboratory. The male heterozygote offspring (R6-2 mice) were used for determining life span and motor activity, with and without drug treatment. Drug treatment consisted of daily (5 continuous days a week) subcutaneous injections of mice with 20 μl of: saline (sham control), vehicle DMSO (vehicle control), classic TSPO ligand PK 11195 (15 mg/kg), prior art Compound A (15 mg/kg), Compound 1 (15 mg/kg), and compound 1 (7.5 mg/kg). Drug treatment started on week 5 after birth. Quantities were used according to previous studies regarding TSPO ligands.
Apart from the behavioral experiments, mice were observed daily, and the day of death was noted. Behavioral experiments included distance covered in an open field apparatus, and tremor measurements.
R6-2 mice were used as previously described in Example 5. In one experiment, treatment consisted of daily (5 continuous days per week) subcutaneous injections of mice with 20 μl of vehicle DMSO (control, n=10) and Compound 6 (7.5 mg/kg, n=12). In a separate experiment, compound 5 (7.5 mg/kg, n=5) was tested, compared to DMSO control (n=5).

The subject of series [3] is R6-2 mice. It is filed as in vivo. The conditions noted are these: chronic s.c. treatment.
Excerpt: as §1, with “ligands. […]” for “ligands.”
FIG. 6. […] In particular, from week 9, when the first mice death occurred, until week 16, when all mice were dead, average distance covered in an open field, per session, per experimental group, per week was measured in cm. […]

“Also recorded” adds a separate entry of the source.

Broadly, the half-life is the time in which the quantity being followed falls by half. Take `CCN(C)C(=O)Oc1nc(-c2ccccc2)nc2ccccc12` [Compound 1, 2-phenylquinazolin-4-yl ethyl(methyl)carbamate]: the “differentiation of PC12 cells toward neuronal type cells” value in the series with PC12 cells was “able to transform PC-12 cells in cell culture to neuron like cells; also recorded: can induce differentiation”. In addition, the “distribution to the brain” value in series [1] was “quite quickly distributed to the brain”. Also, in series [1] (brain, ip, read-out: Uptake ratio to the brain), the Kp was determined as 0.2. The half-life in series [1] (in vivo, ip) is 3.5 h. The stability on storage entry in “Stability on storage” was “stable over several months of storage”. Moreover, the “concentration very effective in preventing ΔΨm collapse” value with U118MG cells was 25 µM. Also, the “prevention of ΔΨm collapse induced by glutamate” value is recorded as “prevents collapse” in the series on U118MG cells and “prevented” with U118MG cells (listed as Cpd 1). The values for the effect on lifespan entry in the series with R6-2 mice [2] and in the series with R6-2 mice [2] (listed as compound 1) were “increases average lifespan; also recorded: extends the life span” and “enhanced lifespan”, respectively. In addition, the adverse effects result in the series on R6-2 mice [3] is reported as “No adverse effects”.

The values are drawn from US10035780B2, “Quinazoline scaffold based compounds, pharmaceutical compositions and methods of use thereof” (TECHNION RESEARCH & DEVELOPMENT FOUNDATION LTD., priority 2014, dated 2018).
